In patent US6476051B2, “Antipsychotic heterocycle compounds” (Bristol-Myers Squibb Company, priority 1999, dated 2002):
Where a name gives a salt, the structure may show the parent alone. Read-outs that look alike come from different tables or passages of the source.

Assays:
[1] = target: T1, recombinant human dopamine D2L receptors (Homo sapiens, UniProt P14416); assay: Dopamine binding protocol ([3H]-spiperone binding, HEK-D2L cell membranes)
T1 construct: expressed in transfected cells; host or cells: HEK-293 (HEK-D2L cells), membrane homogenates
T1 sequence (P14416 whole entry): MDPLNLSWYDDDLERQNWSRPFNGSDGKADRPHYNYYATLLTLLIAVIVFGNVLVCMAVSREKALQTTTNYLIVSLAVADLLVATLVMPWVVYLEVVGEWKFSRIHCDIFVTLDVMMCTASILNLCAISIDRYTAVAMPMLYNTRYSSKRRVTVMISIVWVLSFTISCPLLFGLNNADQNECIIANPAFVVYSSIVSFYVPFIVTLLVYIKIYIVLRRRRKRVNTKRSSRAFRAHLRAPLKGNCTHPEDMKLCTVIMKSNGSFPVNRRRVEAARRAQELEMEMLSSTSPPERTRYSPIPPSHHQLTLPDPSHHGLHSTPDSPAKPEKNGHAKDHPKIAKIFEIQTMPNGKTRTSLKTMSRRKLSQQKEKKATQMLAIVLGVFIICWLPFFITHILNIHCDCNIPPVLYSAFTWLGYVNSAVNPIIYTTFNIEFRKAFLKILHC
Description: Like many clinically effective antipsychotic agents, the compounds of Formula I also are antagonists at the human D2L receptor as determined by [^3H]-spiperone binding studies using human D2L receptors stably expressed in HEK-293 cells.
HEK-293 cells that stably express recombinant human dopamine D2L receptors (HEK-D2L cells) were grown at 37° C. in 5% CO2 as a monolayer in medium consisting of EMEM supplemented with 10% fetal bovine serum and G418 sulfate (500 μg/ml). To prepare membranes for radioligand binding experiments, cells were rinsed twice with phosphate-buffered saline (138 mM NaCl, 4.1 mM KCl, 5.1 mM Na2PO4, 1.5 mM […] 11.1 mM glucose, pH 7.4), and incubated for 5-10 min. at 4° C. in hypotonic lysis buffer consisting of 10 mM Tris (pH 7.4) and 5 mM EDTA. Cells were transferred from plates to polypropylene tubes (16×100 mm), homogenized and centrifuged at 32,000×g for 20 min. Following centrifugation, pellets were resuspended by homogenization in buffer consisting of 50 mM Tris (pH 7.7 at 25° C.) and 1 mM EDTA. Homogenates were stored at −80° C. until needed. On the day of an experiment, homogenates were thawed then centrifuged at 32,000×g for 20 min. Following centrifugation, supernatants were discarded and pellets were resuspended in assay buffer consisting of 50 mM Tris (pH 7.4 at 25° C.), 1 mM EDTA and 6 mM MgCl2. Membrane homogenates (˜5 μg) were incubated with 150 pM [^3H]-spiperone (Amersham Life Science) and increasing concentrations of test compounds for 1.5 hours at 22° C. in a total volume of 400 μl. Reactions were stopped by addition of ice-cold assay buffer and filtration over glass fiber filters (Whatman GFB, pre-soaked in 0.05% polyethylenimine) using a microtitre format Brandel cell harvester. Filters were washed with 3 ml of ice-cold assay buffer. Non-specific binding was defined with 2 μM (+)butaclamol. Ki values were calculated using the method of Cheng and Prusoff (1973). Protein concentrations were determined by the method of Bradford (1976) with BSA as a standard.
Test data IC50 values lower than 250 nM are considered to reflect affinity for dopamine D2L receptors.

[2] = target: T2, human serotonin transporters (Homo sapiens, UniProt P31645); assay: Serotonin transporter binding assay ([3H]-citalopram binding, HEK-hSERT cell membranes)
T2 construct: expressed in transfected cells; host or cells: HEK-293 (HEK-hSERT cells), membrane homogenates
T2 sequence (P31645 whole entry): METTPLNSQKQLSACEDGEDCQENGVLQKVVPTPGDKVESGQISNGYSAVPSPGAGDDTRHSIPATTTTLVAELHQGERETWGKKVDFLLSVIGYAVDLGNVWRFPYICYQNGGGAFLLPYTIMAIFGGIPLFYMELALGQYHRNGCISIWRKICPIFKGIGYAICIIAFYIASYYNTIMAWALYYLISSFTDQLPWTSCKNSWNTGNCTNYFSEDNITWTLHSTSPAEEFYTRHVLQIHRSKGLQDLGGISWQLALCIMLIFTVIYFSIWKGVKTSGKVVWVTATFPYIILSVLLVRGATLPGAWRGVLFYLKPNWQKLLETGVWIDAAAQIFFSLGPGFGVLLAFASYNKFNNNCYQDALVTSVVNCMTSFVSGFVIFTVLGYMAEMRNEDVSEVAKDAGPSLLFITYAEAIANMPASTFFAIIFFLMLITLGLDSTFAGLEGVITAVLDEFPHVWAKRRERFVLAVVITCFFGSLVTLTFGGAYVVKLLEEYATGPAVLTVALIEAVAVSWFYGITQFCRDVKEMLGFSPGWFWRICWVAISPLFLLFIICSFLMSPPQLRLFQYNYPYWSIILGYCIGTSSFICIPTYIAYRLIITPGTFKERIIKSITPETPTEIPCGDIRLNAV
From the text: The compounds of Formula I bind potently to the human 5-HT transporter and inhibit the re-uptake of endogenous serotonin. Selective serotonin reuptake inhibitors (SSRIs) are effective for the treatment of mental depression and have been reported to be useful for treating chronic pain (see: R. W. Fuller, Pharmacologic Modification of Serotonergic Function: Drugs for the Study and Treatment of Psychiatric and Other Disorders,” J. Clin. Psychiatry, 47:4 (Suppl.) April 1986, pp. 4-8). Compounds of the present invention are also envisioned to be useful for treating psychosis, acute mania, mild anxiety states or depression with secondary psychotic episodes. The present compounds are also envisioned to be useful in treating obsessive-compulsive disorders, feeding disorders, anxiety disorders and panic disorders.
HEK-293 cells that stably express human serotonin transporters (HEK-hSERT cells) were grown at 37° C. in 5% CO2 as a monolayer in medium consisting of EMEM supplemented with 10% fetal bovine serum and G418 sulfate (500 μg/ml). To prepare membranes for radioligand binding experiments, cells were rinsed twice with phosphate-buffered saline (138 mM NaCl, 4.1 mM KCl, 5.1 mM Na2PO4, 1.5 mM […], 11.1 mM glucose, pH 7.4). Cells were transferred from plates to polypropylene tubes (16×100 mm), centrifuged at 1,200×g for 5 min and were frozen at −80° C. until assay. Following centrifugation, pellets were resuspended by homogenization in buffer consisting of 50 mM Tris (pH 7.7 at 25° C.), 120 mM NaCl and 5 mM KCl and then centrifuged at 32,000×g for 10 min. Following centrifugation, supernatants were discarded and pellets were resuspended in buffer consisting of 50 mM Tris (pH 7.4 at 25° C.), 150 mM NaCl and 5 mM KCl. Membrane homogenates (200 μl/plate) were incubated with 1 nM [^3H]-citalopram (specific activity=85 Ci/mmol) and increasing concentrations of test compounds for 1 hour at 25° C. in a total volume of 250 μl. The assay buffer consisted of 50 mM Tris (pH 7.4 at 25° C.), 120 mM NaCl and 5 mM KCl (pH 7.4 with conc. HCl). Plates were incubated for 1 hour at 25° C., then filtered through 0.5% PEI treated Whatman GF/B filters using a Brandel cell harvester. Filters were washed three times with 3 ml of ice-cold tris wash buffer. Non-specific binding was defined with 10 μM fluoxetine. Amount of radioligand bound in the presence and absence of competitor was analyzed by plotting (−)log drug concentration versus the amount of radioligand specifically bound. The midpoint of the displacement curve (IC50, nM), signifies the potency. Ki values were calculated using the method of Cheng and Prusoff (1973).
Substances which inhibit the re-uptake of serotonin are recognized to be effective antidepressants (Selective Serotonin Reuptake Inhibitors. Edited by J P Feighner and W F Boyer, Chichester, England. John Wiley & Sons, 1991, pp 89-108). Test data IC50 values lower than 250 nM are considered to reflect activity as an inhibitor of serotonin re-uptake.

[3] = [3H]-spiperone, HEK-D2L membranes, read-out: dopamine D2L ligands with Ki
[4] = [3H]-citalopram, HEK-hSERT membranes, read-out: inhibit the re-uptake of serotonin with Ki

Row | Ki [1, 3] | Ki [2, 4] | SMILES | melting point | Ki [1] | Ki [2]
1 | – | – | Cc1nc2cc(OCCCN3CC=C(c4c[nH]c5ccc(C#N)cc45)CC3)ccc2s1 (as salt: HCl) [Example 12, 5-{3-[4-(5-cyanoindol-3-yl)-1,2,5,6-tetrahydropyrid-1-yl]propoxy}-2-methylbenzothiazole] | 263 to 265 °C | – | –
2 | – | – | Cc1nc2cc(OCCCN3CC=C(c4c[nH]c5c(Br)cccc45)CC3)ccc2s1 [Example 28, 5-{3-[4-(7-bromoindol-3-yl)-1,2,5,6-tetrahydropyrid-1-yl]propoxy}-2-methylbenzothiazole] | – | < 100 nM | < 100 nM
3 | – | – | Cc1nc2cc(OCCCCN3CC=C(c4c[nH]c5c(Br)cccc45)CC3)ccc2s1 [Example 29, 5-{4-[4-(7-bromoindol-3-yl)1,2,5,6-tetrahydropyrid-1-yl]butoxy}-2-methylbenzothiazole] | – | < 100 nM | < 100 nM
4 | – | – | Cc1nc2cc(OCCCCCN3CC=C(c4c[nH]c5c(Br)cccc45)CC3)ccc2s1 [Example 30, 5-{5-[4-(7-bromoindol-3-yl)-1,2,5,6-tetrahydropyrid-1-yl]pentoxy}-2-methylbenzothiazole] | – | < 100 nM | < 100 nM
5 | – | – | COc1ccc2[nH]cc(C3=CCN(CCCOc4ccc5sc(C)nc5c4)CC3)c2c1 [Example 31, 5-{3-[4-(5-methoxyindol-3-yl)-1,2,5,6-tetrahydropyrid-1-yl]propoxy}-2-methylbenzothiazole] | – | < 100 nM | < 100 nM
6 | – | – | COc1ccc2[nH]cc(C3=CCN(CCCCCOc4ccc5sc(C)nc5c4)CC3)c2c1 [Example 33, 5-{5-[4-(5-methoxyindol-3-yl)-1,2,5,6-tetrahydropyrid-1-yl]pentoxy}-2-methylbenzothiazole] | – | < 100 nM | < 100 nM
7 | – | – | Cc1nc2cc(OCCCN3CC=C(c4c[nH]c5ccc(F)cc45)CC3)ccc2s1 [Example 34, 5-{3-[4-(5-fluoroindol-3-yl)-1,2,5,6-tetrahydropyrid-1-yl]propoxy}-2-methylbenzothiazole] | – | < 100 nM | < 100 nM
8 | – | – | Cc1nc2cc(OCCCN3CC=C(c4c[nH]c5ccc(Br)cc45)CC3)ccc2s1 [Example 36, 5-{3-[4-(5-bromoindol-3-yl)-1,2,5,6-tetrahydropyrid-1-yl]propoxy}-2-methylbenzothiazole] | – | < 100 nM | < 100 nM
9 | – | – | Cc1nc2cc(OCCCCN3CC=C(c4c[nH]c5ccc(C#N)cc45)CC3)ccc2s1 [Example 38, 5-{4-[4-(5-cyanoindol-3-yl)-1,2,5,6-tetrahydropyrid-1-yl]butoxy}-2-methylbenzothiazole] | – | < 100 nM | < 100 nM
10 | < 100 nM | < 100 nM | Cc1nc2cc(OCCCN3CCC(Cc4cccc5c4OCO5)CC3)ccc2s1 [Example 41, 5-{3-[4-(2H-benzo[d]1,3-dioxolan-4-ylmethyl)piperidinyl]propoxy}-2-methylbenzothiazole] | – | – | –
11 | < 100 nM | < 100 nM | Cc1nc2cc(OCCCN3CCC(Cc4cc(F)ccc4Br)CC3)ccc2s1 [Example 44, 5-(3-{4-[(2-bromo-5-fluorophenyl)methyl]piperidinyl}propoxy)-2-methylbenzothiazole] | – | – | –
12 | < 100 nM | < 100 nM | Cc1nc2cc(OCCCN3CCC(Cc4cc(F)ccc4F)CC3)ccc2s1 [Example 45, 5-(3-{4-[(2,-5-difluorophenyl)methyl]piperidinyl}propoxy)-2-methylbenzothiazole] | – | – | –
